The source of these data is patent US20110059102A1, “Therapeutic Method Targeting Midkine” (NATIONAL UNIVERSITY CORPORATION NAGOYA UNIVERSITY, priority 2009, published 2011).

“Also recorded” adds a separate entry of the source.

Holding throughout (type): in vivo
Experiment [1] has as its system Ang II. As to the kind of experiment: Plasma Ang II concentration after 5/6 nephrectomy. The settings on record: Mdk+/+ mice after 5/6 nephrectomy. The protocol: Drug treatment model. In the drug treatment studies, Mdk^+/+ mice were randomly assigned to receive one of the following 5 treatments after 5/6 nephrectomy and were orally treated daily starting from 24 hours after 5/6 nephrectomy: vasodilator (hydralazine hydrochloride; Novartis) at a dose of 10 mg/kg/d (group 1, n=3); ACE inhibitor (temocapril; Daiichi Sankyo Co.) at a dose of 3 mg/kg/d (group 2, n=3); angiotensin receptor blocker (olmesartan; Daiichi Sankyo Co.) at a dose of 3 mg/kg/d (group 3, n=3); antioxidative reagent (tempol; Alexis Biochemicals) at a dose of 3 mmol/l in drinking solution after 5/6 nephrectomy (group 4, n=6); and sham operation (group 5, n=6). Drug treatment was performed at 2 weeks after 5/6 nephrectomy. In the present study, we determined the dosage according to previous reports (Hypertension. 13:582-588, J. Cardiovasc. Pharmacol. 40:533-542, Hypertension. 43:841-848). Blood pressure was measured by the tail-cuff method at 2 weeks, as described below under Blood pressure monitoring. […]
Sample collection. […] Serum creatinine, blood urea nitrogen (Mdk^+/+: sham, n=6; 2 weeks, n=10; 4 weeks, n=9; 8 weeks, n=8; Mdk^−/−: sham, n=7; 2 weeks, n=7; 4 weeks, n=6; 8 weeks, n=4), and Ang II concentrations (Mdk^+/+: sham, n=6; 2 weeks, n=6; 4 weeks, n=8; Mdk^−/−: sham, n=6; 2 weeks, n=7; 4 weeks, n=5) were measured by Mitsubishi BCL.

Experiment [2] relates to MK. Briefly: MK protein expression in lung and kidney by Western blotting after 5/6 nephrectomy. The note with it: Mdk+/+ mice after 5/6 nephrectomy. As for the experimental part:
(§1) Drug treatment model. In the drug treatment studies, Mdk^+/+ mice were randomly assigned to receive one of the following 5 treatments after 5/6 nephrectomy and were orally treated daily starting from 24 hours after 5/6 nephrectomy: vasodilator (hydralazine hydrochloride; Novartis) at a dose of 10 mg/kg/d (group 1, n=3); ACE inhibitor (temocapril; Daiichi Sankyo Co.) at a dose of 3 mg/kg/d (group 2, n=3); angiotensin receptor blocker (olmesartan; Daiichi Sankyo Co.) at a dose of 3 mg/kg/d (group 3, n=3); antioxidative reagent (tempol; Alexis Biochemicals) at a dose of 3 mmol/l in drinking solution after 5/6 nephrectomy (group 4, n=6); and sham operation (group 5, n=6). Drug treatment was performed […]. In the present study, we determined the dosage according to previous reports (Hypertension. 13:582-588, J. Cardiovasc. Pharmacol. 40:533-542, Hypertension. 43:841-848). Blood pressure was measured by the tail-cuff method at 2 weeks, as described below under Blood pressure monitoring. Mice were sacrificed at 2 weeks after 5/6 nephrectomy, and blood and tissue samples were collected.
Western blot analysis. Mouse kidney, lung, brain, heart, and liver tissues were snap-frozen in liquid nitrogen for protein isolation. […] The density of each band was measured using the public domain NIH Image program (http://rsb.info.nih.gov/nih-image/).
A general note: Immunoblotting shows a protein as a band on a membrane.

Experiment [3] concerns Mdk+/+ mice after 5/6 nephrectomy. Briefly: Kidney histology (PAS staining) after 5/6 nephrectomy, drug treatment model. The note with it: 2 weeks after 5/6 nephrectomy. As for the experimental part: as §1
Histology and immunohistochemistry.

The test system is the same in experiment [4]. Briefly: Blood pressure by tail-cuff method, drug treatment model after 5/6 nephrectomy. The settings on record: 2 weeks after 5/6 nephrectomy. As for the experimental part: as §1
Blood pressure monitoring. Blood pressure was measured in restrained, conscious mice by the indirect tail-cuff technique under unstressed conditions (BP-98A; Softron) at 0, 2, 4, 6, and 8 weeks after 5/6 nephrectomy (J. Lab. Clin. Med. 78:957-962). Before measurement, the mice were warmed with a heating pad for 5 minutes. A total of 7-10 readings were taken for each mouse, at 1- to 2-minute intervals.

Experiment [5] is described as follows: Body weight, blood urea nitrogen and serum creatinine after 5/6 nephrectomy, drug treatment model. The note with it: Mdk+/+ mice. As for the experimental part: Animals and experimental design. Mice deficient in Mdk were generated as described previously (Genes Cells. 3:811-822). After backcrossing of Mdk+/− mice for 14 generations with 129/Sv mice, Mdk+/− mice were mated with each other to generate Mdk^+/+ and Mdk^−/− mice, which were used in this study. Experiments were performed on 8 to 12-week-old female mice weighing 20-25 g that were housed under controlled environmental conditions and maintained with standard food and water. Animal care and experimental procedures were approved by the Animal Experimentation Committee of the Nagoya University Graduate School of Medicine and were conducted according to the Nagoya University Regulations for Experiments. Renal ablation was performed as described previously. Briefly, mice were anesthetized by diethyl ether. The flank region was shaved, and the animals were placed on a heating pad to maintain a constant body temperature (37° C.). Under anesthesia, right flank incisions were made, and the right kidney was removed. Seven days later, mice were anesthetized as above, and two-thirds of the mass of the left kidneys was ablated (Mdk^+/+: 2 weeks, n=13; 4 weeks, n=13; 8 weeks, n=8; Mdk^−/−: 2 weeks, n=10; 4 weeks, n=10; 8 weeks, n=4). After the renal ablation, the flanks were closed in 2 layers with 5-0 silk sutures. The animals received 100 ml/kg warm saline instilled into the peritoneal cavity during the procedure and were allowed to recover with free access to food and water. In the control mice, a sham operation was performed (Mdk^+/+, n=11; Mdk^−/−, n=8).
as §1
Sample collection. Mice were sacrificed at 2, 4, and 8 weeks after 5/6 nephrectomy. The remnant kidney, lung, brain, heart, and liver were removed rapidly, snap-frozen in liquid nitrogen, and stored at −80° C. until examinations were performed. Each tissue was processed for histology, protein extraction, and RNA extraction. Blood samples were collected into chilled tubes for measurement of renal function parameters and into chilled tubes containing EDTA for Ang II measurements. Serum and plasma were separated by centrifugation (500 g for 10 minutes) and stored at −80° C. until measurement were performed. Serum creatinine, blood urea nitrogen (Mdk^+/+: sham, n=6; 2 weeks, n=10; 4 weeks, n=9; 8 weeks, n=8; Mdk^−/−: sham, n=7; 2 weeks, n=7; 4 weeks, n=6; 8 weeks, n=4), and Ang II concentrations (Mdk^+/+: sham, n=6; 2 weeks, n=6; 4 weeks, n=8; Mdk^−/−: sham, n=6; 2 weeks, n=7; 4 weeks, n=5) were measured by Mitsubishi BCL.

Where [6] appears, read: 2 weeks after nephrectomy, oral daily at indicated dose, mean ± SD.

Consider `CC1(C)CC(O)CC(C)(C)N1[O]` [Tempol, 4-hydroxy-2,2,6,6-tetramethylpiperidine-N-oxyl], for which the “Plasma Ang II levels” value in experiment [1] is recorded as “reduced”. Moreover, the “MK expression in the lung” value in experiment [2] (tempol 3 mmol/l in drinking water) is reported as “reduced MK expression to normal levels”. In addition, in experiment [2] (tempol in drinking water), the “MK expression in the kidney” value is given as “reduced”. The Glomerular sclerosis result in experiment [3] is “ameliorated”. Further, the Renal tubulointerstitial damage result in experiment [3] (PAS staining) is “slight; also recorded: ameliorated”. Moreover, the “Blood pressure / hypertension” value in experiment [4] is listed as “reduced”. Besides, in experiment [5] (setting [6]), the “BUN (blood urea nitrogen)” value was 41.2 ± 3.9^B mg/dl and the “Cre (serum creatinine)” value is on record as 0.25 ± 0.04^A mg/dl. Further, the “Abnormal elevation of blood urea nitrogen and serum creatinine” value in experiment [5] (2 weeks after 5/6 nephrectomy) was “significantly reduced”.
